Tests used:
[1] = system: SMN2 minigene mRNA (SMN2-A minigene construct); assay: SMN2 minigene mRNA splicing RT-qPCR assay in cultured cells; assay type: cell-based, human; conditions: Homo sapiens, HEK293-H; HEK293H cells stably transfected with SMN2-A minigene, 24 hours, 7-point concentration data; concentration giving 1.5-fold SMN2 full length mRNA relative to vehicle-treated cells; read-out: EC1.5x for production of full length SMN2 mRNA
How it was run: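 Full-length SMN2 minigene mRNA, measured by exon 7/luciferase-specific RT-qPCR that excludes endogenous SMN1/SMN2, was normalized to GAPDH and expressed relative to vehicle-treated cells via modified ΔΔCt. Stably transfected HEK293H cells received compound (7-point, 3.16-fold series, duplicates) for 24 h at 37 °C.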

[2] = system: Smn protein; assay: Smn protein assay (HTRF) in cultured cells (SMA patient fibroblasts GM03813); assay type: cell-based, human; conditions: 48 hours; for EC1.5x for Smn protein expression: SMA patient fibroblast cells (GM03813), HTRF, 7-point concentration data, concentration producing 1.5 times Smn protein vs DMSO vehicle control; for maximum fold (Fold) increase of Smn protein: SMA patient fibroblast cells, 7-point concentration curve, relative to vehicle control
How it was run: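 Smn level is expressed as fold over vehicle, from blank-corrected ΔF of the 665/620 nm HTRF ratio. Readout used anti-SMN d2 and kryptate antibodies on RIPA lysates. GM03813 SMA fibroblasts had 48 h exposure at 37° C to seven 3.16-fold compound dilutions, run in triplicate.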

| SMILES | EC (1.5-fold) [1] [µM] | EC1.5x for Smn protein expression [2] | maximum fold (Fold) increase of Smn protein [2] | melting point [°C] |
| --- | --- | --- | --- | --- |
| CCN1CCN(c2ccc3cc(-c4cn5cc(C)nc(C)c5n4)c(=O)oc3n2)CC1 [Cpd 140, 3-(6,8-dimethylimidazo[1,2-a]pyrazin-2-yl)-7-(4-ethylpiperazin-1-yl)-2H-pyrano[2,3-b]pyridin-2-one] | 0.3 to 1 | ** (an EC1.5× between >1 and ≦3 μM is indicated by two stars (**)) | **** (a fold increase between >1.5 and ≦1.65 is indicated by four stars (****)) | 238 to 241 |
| CCN1CCCN(c2ccc3cc(-c4cn5cccc(Cl)c5n4)c(=O)oc3n2)CC1 [Cpd 141, 3-(8-chloroimidazo[1,2-a]pyridin-2-yl)-7-(4-ethyl-1,4-diazepan-1-yl)-2H-pyrano[2,3-b]pyridin-2-one] | ≤ 0.1 | **** (an EC1.5×≦0.3 μM is indicated by four stars (****)) | **** (a fold increase between >1.5 and ≦1.65 is indicated by four stars (****)) | 201 to 204 |
| CCN1CCCN(c2ccc3cc(-c4cn5cc(C)ncc5n4)c(=O)oc3n2)CC1 [Cpd 142, 7-(4-ethyl-1,4-diazepan-1-yl)-3-(6-methylimidazo[1,2-a]pyrazin-2-yl)-2H-pyrano[2,3-b]pyridin-2-one] | ≤ 0.1 | *** (an EC1.5× between >0.3 μM and ≦1 μM is indicated by three stars (***)) | **** (a fold increase between >1.5 and ≦1.65 is indicated by four stars (****)) | 217 to 221 |
| CCN1CCN(c2ccc3cc(-c4cn5cc(C)ncc5n4)c(=O)oc3n2)C[C@@H]1C [Cpd 143, 7-[(3S)-4-ethyl-3-methylpiperazin-1-yl]-3-(6methylimidazo-[1,2-a]pyrazin-2-yl)-2H-pyrano[2,3-b]pyridin-2-one] | ≤ 0.1 | *** (an EC1.5× between >0.3 μM and ≦1 μM is indicated by three stars (***)) | **** (a fold increase between >1.5 and ≦1.65 is indicated by four stars (****)) | 252 to 256 |
| CCN1CCN(c2ccc3cc(-c4cn5cc(C)nc(C)c5n4)c(=O)oc3n2)C[C@@H]1C [Cpd 144, 3-(6,8-dimethylimidazo[1,2-a]pyrazin-2-yl)-7-[(3S)-4-ethyl-3-methylpiperazin-1-yl]-2H-pyrano[2,3-b]pyridin-2-one] | ≤ 0.1 | **** (an EC1.5×≦0.3 μM is indicated by four stars (****)) | **** (a fold increase between >1.5 and ≦1.65 is indicated by four stars (****)) | 184 to 190 |
| CCN1CCN(c2ccc3cc(-c4cn5cccc(Cl)c5n4)c(=O)oc3n2)C[C@@H]1C [Cpd 145, 3-(8-chloroimidazo[1,2-a]pyridin-2-yl)-7-[(3S)-4-ethyl-3-methylpiperazin-1-yl]-2H-pyrano[2,3-b]pyridin-2-one] | ≤ 0.1 | **** (an EC1.5×≦0.3 μM is indicated by four stars (****)) | **** (a fold increase between >1.5 and ≦1.65 is indicated by four stars (****)) | 196 to 199 |
